Data published in PubChem BioAssay AID248 (DTP/NCI, 2004).
Toxic doses and inconclusive results are not listed. Rule as the data show it: active = T/C of 150% or more; inactive = T/C below 125%.

System: L1210 leukemia ip in BDF1 mice, survival T/C
Assay: NCI In Vivo Anticancer Drug Screen. Data for tumor model L1210 Leukemia (intraperitoneal) in B6D2F1 (BDF1) mice
Details: endpoint: mean survival time, higher = longer survival
In short: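 Read-out is survival time, reported as the treated-group measurement over the vehicle-control measurement.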

[1] = dose: 100.0 mg/kg/injection, schedule: Q01DX001 (ip), vehicle: saline
[2] = dose: 200.0 mg/kg/injection, schedule: Q01DX001 (ip), vehicle: saline
[3] = dose: 400.0 mg/kg/injection, schedule: Q01DX001 (ip), vehicle: saline
[4] = dose: 100.0 mg/kg/injection, schedule: Q01DX009 (ip), vehicle: saline
[5] = dose: 100.0 mg/kg/injection, schedule: Q04DX003 (ip), vehicle: saline
[6] = dose: 50.0 mg/kg/injection, schedule: Q01DX001 (ip), vehicle: Klucel (hydroxypropylcellulose) (HPC)
[7] = dose: 100.0 mg/kg/injection, schedule: Q01DX001 (ip), vehicle: Klucel (hydroxypropylcellulose) (HPC)
[8] = dose: 200.0 mg/kg/injection, schedule: Q01DX001 (ip), vehicle: Klucel (hydroxypropylcellulose) (HPC)
[9] = dose: 100.0 mg/kg/injection, schedule: Q04DX003 (ip), vehicle: saline with Tween-80
[10] = dose: 200.0 mg/kg/injection, schedule: Q04DX003 (ip), vehicle: saline with Tween-80
[11] = dose: 400.0 mg/kg/injection, schedule: Q04DX003 (ip), vehicle: saline with Tween-80
[12] = dose: 100.0 mg/kg/injection, schedule: Q01DX009 (ip), vehicle: Klucel (hydroxypropylcellulose) (HPC)
[13] = dose: 200.0 mg/kg/injection, schedule: Q01DX009 (ip), vehicle: Klucel (hydroxypropylcellulose) (HPC)
[14] = dose: 400.0 mg/kg/injection, schedule: Q01DX009 (ip), vehicle: Klucel (hydroxypropylcellulose) (HPC)

Measured: T/C

O=[N+]([O-])NC(=NCCNc1ccccc1)Nc1ccccc1
inactive: dose: 100.0 mg/kg/injection, schedule: Q04DX002 (ip), vehicle: gum acacia 98 % of control | dose: 200.0 mg/kg/injection, schedule: Q04DX002 (ip), vehicle: gum acacia 98 % of control | dose: 400.0 mg/kg/injection, schedule: Q04DX002 (ip), vehicle: gum acacia 88 % of control

COc1ccc(Cl)cc1NC(=O)OC/C=C/c1ccccc1
inactive: dose: 100.0 mg/kg/injection, schedule: Q01DX009 (ip), vehicle: gum acacia 96 % of control | dose: 200.0 mg/kg/injection, schedule: Q01DX009 (ip), vehicle: gum acacia 96 % of control | dose: 400.0 mg/kg/injection, schedule: Q01DX009 (ip), vehicle: gum acacia 87 % of control

CCOC1(OCC)C([N+](=O)[O-])=CC(=[N+]([O-])O)C=C1[N+](=O)[O-]
inactive: dose: 50.0 mg/kg/injection, schedule: Q01DX001 (ip), vehicle: saline 102 % of control | [1] 98 % of control | [2] 98 % of control | [3] 101 % of control

CN(C)S(=O)(=O)c1ccc(NC(=O)OC(c2ccccc2)c2ccccc2)cc1
inactive: [1] 91 % of control | [2] 102 % of control | [3] 91 % of control

C(/C=C/C=C/N1CCCCC1)=[N+]1CCCCC1
inactive: dose: 0.39 mg/kg/injection, schedule: Q04DX003 (ip), vehicle: saline 112 % of control | dose: 0.78 mg/kg/injection, schedule: Q04DX003 (ip), vehicle: saline 93 % of control | dose: 1.56 mg/kg/injection, schedule: Q04DX003 (ip), vehicle: saline 105 % of control

O=C(CCl)C1C(O)=[N+](c2ccccc2)C2C=CC=CN12 (stereo not drawn)
inactive: dose: 25.0 mg/kg/injection, schedule: Q01DX009 (ip), vehicle: saline 92 % of control | dose: 25.0 mg/kg/injection, schedule: Q04DX003 (ip), vehicle: saline 92 % of control | dose: 50.0 mg/kg/injection, schedule: Q01DX009 (ip), vehicle: saline 89 % of control | dose: 50.0 mg/kg/injection, schedule: Q04DX003 (ip), vehicle: saline 102 % of control | [1] 105 % of control | [4] 87 % of control | [5] 95 % of control | dose: 150.0 mg/kg/injection, schedule: Q01DX009 (ip), vehicle: saline 95 % of control | dose: 225.0 mg/kg/injection, schedule: Q01DX009 (ip), vehicle: saline 95 % of control | dose: 335.0 mg/kg/injection, schedule: Q01DX009 (ip), vehicle: saline 95 % of control

C=C=C[P+](c1ccccc1)(c1ccccc1)c1ccccc1
inactive: dose: 5.0 mg/kg/injection, schedule: Q01DX001 (ip), vehicle: saline 104 % of control | dose: 10.0 mg/kg/injection, schedule: Q01DX001 (ip), vehicle: saline 98 % of control | dose: 20.0 mg/kg/injection, schedule: Q01DX001 (ip), vehicle: saline 101 % of control | dose: 40.0 mg/kg/injection, schedule: Q01DX001 (ip), vehicle: saline 124 % of control

O=C(O)/C=C\Cc1cccc(=O)[nH]1
inactive: [6] 94 % of control | [7] 95 % of control | [8] 97 % of control

CCCCCCCCCCCCOc1ccc2ccccc2c1
inactive: [9] 97 % of control | [10] 95 % of control | [11] 108 % of control

O=[N+]([O-])c1ccc(Cl)c2c([N+](=O)[O-])cccc12
inactive: [9] 94 % of control | [10] 102 % of control

CCOC(=O)CNC(c1ccccc1)(c1ccccc1)c1ccccc1
inactive: [12] 106 % of control | dose: 100.0 mg/kg/injection, schedule: Q04DX003 (ip), vehicle: Klucel (hydroxypropylcellulose) (HPC) 91 % of control | [13] 90 % of control | dose: 200.0 mg/kg/injection, schedule: Q04DX003 (ip), vehicle: Klucel (hydroxypropylcellulose) (HPC) 91 % of control | [14] 90 % of control | dose: 400.0 mg/kg/injection, schedule: Q04DX003 (ip), vehicle: Klucel (hydroxypropylcellulose) (HPC) 98 % of control

O=C(CC(O)(C(F)(F)F)C(F)(F)F)c1cccnc1
inactive: [12] 98 % of control | [9] 101 % of control | [13] 104 % of control | [10] 103 % of control | [14] 101 % of control | [11] 103 % of control

Nc1nc(-c2ccccc2)[nH]c(=O)c1N=O
inactive: dose: 100.0 mg/kg/injection, schedule: Q04DX002 (ip), vehicle: saline with Tween-80 98 % of control | dose: 200.0 mg/kg/injection, schedule: Q04DX002 (ip), vehicle: saline with Tween-80 87 % of control | dose: 400.0 mg/kg/injection, schedule: Q04DX002 (ip), vehicle: saline with Tween-80 102 % of control

CCCCCNc1ccnc(=O)[nH]1
inactive: [6] 99 % of control | [7] 94 % of control | [8] 96 % of control

Cc1ccc(C(=O)C2CN(C)CCC2(O)c2ccc(C)cc2)cc1 (stereo not drawn)
inactive: [9] 96 % of control | [10] 103 % of control | [11] 96 % of control

CN(C(=O)c1cccnc1)c1ccccc1
inactive: [9] 94 % of control | [10] 96 % of control | [11] 107 % of control

CCSC1C(O)OC(CO)C(O)C1O (stereo not drawn)
inactive: [1] 95 % of control | [2] 106 % of control | [3] 104 % of control

OCC1(O)OCC(O)C(O)C1O (stereo not drawn)
inactive: [4] 89 % of control | dose: 200.0 mg/kg/injection, schedule: Q01DX009 (ip), vehicle: saline 94 % of control | dose: 400.0 mg/kg/injection, schedule: Q01DX009 (ip), vehicle: saline 90 % of control | dose: 800.0 mg/kg/injection, schedule: Q01DX009 (ip), vehicle: saline 90 % of control

O=C(NCc1ccccc1)c1ccc(Cl)cc1
inactive: [5] 97 % of control | dose: 200.0 mg/kg/injection, schedule: Q04DX003 (ip), vehicle: saline 97 % of control | dose: 400.0 mg/kg/injection, schedule: Q04DX003 (ip), vehicle: saline 95 % of control

CCOC(=O)CC(CC(=O)OCC)NC(=O)c1ccc(N(C)C=O)cc1
inactive: dose: 100.0 mg/kg/injection, schedule: Q01DX001 (ip), vehicle: other 100 % of control | dose: 200.0 mg/kg/injection, schedule: Q01DX001 (ip), vehicle: other 102 % of control | dose: 400.0 mg/kg/injection, schedule: Q01DX001 (ip), vehicle: other 97 % of control

CC(C)c1ccccc1SCC1=NCCN1
inactive: dose: 10.0 mg/kg/injection, schedule: Q04DX003 (ip), vehicle: Klucel (hydroxypropylcellulose) (HPC) 103 % of control | dose: 20.0 mg/kg/injection, schedule: Q04DX003 (ip), vehicle: Klucel (hydroxypropylcellulose) (HPC) 115 % of control

COc1ccc2c(c1)CC(=CO)CC2=O.COc1ccc2c(c1)CC/C(=C/O)C2=O.[Cu]
inactive: dose: 100.0 mg/kg/injection, schedule: Q01DX009 (ip), vehicle: saline with Tween-80 98 % of control | dose: 100.0 mg/kg/injection, schedule: Q04DX003 (ip), vehicle: saline sonified 101 % of control | dose: 200.0 mg/kg/injection, schedule: Q01DX009 (ip), vehicle: saline with Tween-80 110 % of control | dose: 200.0 mg/kg/injection, schedule: Q04DX003 (ip), vehicle: saline sonified 90 % of control | dose: 400.0 mg/kg/injection, schedule: Q04DX003 (ip), vehicle: saline sonified 104 % of control

CCOC(=O)C1CNc2ccccc2N1 (stereo not drawn)
inactive: dose: 25.0 mg/kg/injection, schedule: Q01DX009 (ip), vehicle: saline with Tween-80 93 % of control | dose: 50.0 mg/kg/injection, schedule: Q01DX009 (ip), vehicle: saline with Tween-80 110 % of control | [9] 105 % of control

O=c1[nH]c(=O)n(C2OC(CO)C(O)C2O)cc1O (stereo not drawn)
inactive: dose: 100.0 mg/kg/injection, schedule: Q01DX001 (ip), vehicle: water 92 % of control | dose: 200.0 mg/kg/injection, schedule: Q01DX001 (ip), vehicle: water 94 % of control | dose: 400.0 mg/kg/injection, schedule: Q01DX001 (ip), vehicle: water 103 % of control
